According to the supplement of paper PMC10307832:

Assays:
Assay in all cases: relative viability (nuclei count vs DMSO), 5 days (fraction); higher = more cells survive
[1] = compound: C[C@]12O[C@H](C[C@]1(O)CO)n1c3ccccc3c3c4c(c5c6ccccc6n2c5c31)CNC4=O [Lestaurtinib] + CC(C)C[C@H](NC(=O)[C@H](Cc1ccccc1)NC(=O)c1cnccn1)B(O)O [Bortezomib] (partner 0.002 µM)
Procedure, shortened: (§1)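 Lung cancer cell lines, seeded in 1536-well plates, were treated the following day by pin tool with a single drug or with five library-drug doses (not always all listed) in √10 steps on top of a fixed anchor-drug dose. Cells were fixed and nuclei stained in one step after 5 days, and nuclei were counted. Relative viability is the nuclei count for treated wells divided by that for vehicle wells, reported as medians of duplicate plates.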

[2] = compound: C1/C(=C\C2=CC=CS2)/C(=O)/C(=C/C3=CC=CS3)/C1 + CCNC(=O)c1noc(-c2cc(C(C)C)c(O)cc2O)c1-c1ccc(CN2CCOCC2)cc1 [Luminespib] (partner 0.01 µM)
Procedure, shortened: as §1

TPCA-1 + Vorinostat = compound: C1=CC(=CC=C1C2=CC(=C(S2)NC(=O)N)C(=O)N)F [TPCA-1] + O=C(CCCCCCC(=O)Nc1ccccc1)NO [Vorinostat] (partner 1 µM)
Procedure, shortened: as §1

TPCA-1 + Decitabine = compound: C1=CC(=CC=C1C2=CC(=C(S2)NC(=O)N)C(=O)N)F [TPCA-1] + Nc1ncn([C@H]2C[C@H](O)[C@@H](CO)O2)c(=O)n1 [Decitabine] (partner 2 µM)
Procedure, shortened: as §1

Cell Line	relative viability ([1]; first compound 0.005 µM)	relative viability ([1]; first compound 0.01581 µM)	relative viability ([1]; first compound 0.05 µM)	relative viability ([1]; first compound 0.1581 µM)	relative viability ([1]; first compound 0.5 µM)	relative viability ([2]; first compound 0.2 µM)	relative viability ([2]; first compound 0.6325 µM)	relative viability ([2]; first compound 2 µM)	relative viability ([2]; first compound 6.325 µM)	relative viability ([2]; first compound 20 µM)	relative viability (TPCA-1 + Vorinostat; first compound 0.04 µM)	relative viability (TPCA-1 + Vorinostat; first compound 0.1265 µM)	relative viability (TPCA-1 + Vorinostat; first compound 0.4 µM)	relative viability (TPCA-1 + Vorinostat; first compound 1.265 µM)	relative viability (TPCA-1 + Vorinostat; first compound 4 µM)	relative viability (TPCA-1 + Decitabine; first compound 0.04 µM)	relative viability (TPCA-1 + Decitabine; first compound 0.1265 µM)	relative viability (TPCA-1 + Decitabine; first compound 0.4 µM)	relative viability (TPCA-1 + Decitabine; first compound 1.265 µM)	relative viability (TPCA-1 + Decitabine; first compound 4 µM)
HCC-15	1.04	1.28	0.868	0.868	0.194	0.396	0.245	0.234	0.211	0.219	0.914	0.758	0.84	0.782	0.806	0.731	0.546	0.708	0.625	0.374
HCC-44	0.925	0.997	0.873	1.06	0.683	1.09	1.19	1.08	0.942	0.965	1.09	1.07	0.95	1.1	0.85	1.1	0.841	0.908	0.879	0.887
HCC-827	0.923	1.08	0.989	1.11	0.647	0.85	0.608	0.454	0.592	0.636	0.987	0.764	0.89	0.841	0.671	0.364	0.326	0.317	0.31	0.31
HOP-62	0.863	0.707	0.913	1.42	0.696	0.992	1.03	0.909	0.861	0.918	0.771	0.52	0.688	0.381	0.176	0.261	0.198	0.215	0.198	0.214
LC-2-ad	0.966	1.2	0.882	0.407	0.329	1.2	1.14	1.12	1.04	0.961	0.742	0.69	0.705	0.716	0.155	0.773	0.678	0.741	0.854	0.776
LCLC-97TM1	–	0.723	0.299	0.282	0.226	0.734	0.813	0.754	0.782	0.803	0.844	0.488	0.905	0.365	0.0988	0.274	0.23	0.214	0.247	0.243
LCLC-103H	1.09	1.07	0.943	0.908	0.56	1.05	0.901	1.07	0.936	0.989	0.839	0.764	0.818	0.525	0.363	0.716	0.719	0.772	0.788	0.811
LOU-NH91	0.486	0.549	0.53	0.511	0.373	0.332	0.358	0.413	0.328	0.338	0.937	0.925	0.908	0.851	0.674	0.835	0.749	0.793	0.792	0.776
LU99A	1.02	1.02	0.516	0.382	0.208	0.245	0.201	0.268	0.224	0.281	0.546	0.463	0.544	0.457	0.316	0.923	0.76	0.901	0.834	0.377
LXF-289	0.975	1.08	0.75	0.762	0.185	0.705	0.735	0.633	0.611	0.691	0.786	0.819	0.762	0.764	0.42	0.384	0.345	0.395	0.403	0.34
NCI-H23	0.904	1.04	0.642	1.1	0.255	0.237	0.197	0.2	0.203	0.194	0.392	0.579	0.546	0.526	0.161	0.319	0.277	0.289	0.317	0.262
NCI-H322M	1.25	1.34	1.13	0.588	0.967	0.994	0.831	0.938	0.812	0.745	0.976	0.89	0.958	0.864	0.431	0.729	0.638	0.74	0.682	0.486
NCI-H441	0.4	0.618	0.603	0.295	0.367	0.331	0.377	0.343	0.37	0.345	0.776	0.636	0.717	0.577	0.476	0.252	0.247	0.229	0.48	0.239
NCI-H460	1.08	1.35	0.926	1.44	0.84	0.0304	0.0338	0.0299	0.02	0.0356	0.878	0.686	–	0.682	0.563	0.521	0.461	–	0.453	0.476
NCI-H520	0.712	0.724	0.282	0.321	0.224	0.231	0.218	0.212	0.209	0.242	0.72	0.636	0.782	0.605	0.497	0.522	0.35	0.573	0.516	0.331
NCI-H596	1.16	1.28	0.969	1.29	1.06	1.06	1.09	1.08	0.912	0.992	0.64	0.613	0.696	0.668	0.616	1.02	0.997	1.07	1.1	1.07
NCI-H647	0.994	0.828	0.276	0.244	0.133	0.154	0.186	0.149	0.203	0.158	0.48	0.599	0.518	0.312	0.218	0.475	0.433	0.385	0.4	0.346
NCI-H650	0.651	1.03	0.678	0.452	0.314	0.901	0.701	0.826	0.735	0.944	0.414	0.402	0.41	0.308	0.27	0.347	0.359	0.338	0.331	0.3
NCI-H661	0.736	0.813	0.831	0.685	0.436	0.942	0.964	0.934	0.843	0.929	0.739	0.759	0.806	0.754	0.483	0.533	0.58	0.597	0.602	0.436
NCI-H727	0.862	1.42	0.752	0.76	0.291	0.428	0.336	0.433	0.477	0.308	1.21	0.947	1.26	1.25	1.31	0.946	0.787	0.943	0.788	0.576
NCI-H838	0.79	0.783	0.615	0.472	0.148	0.387	0.253	0.309	0.222	0.281	0.752	0.64	0.676	0.648	0.363	0.466	0.442	0.532	0.44	0.44
NCI-H1355	1.36	1.2	1.21	1.03	0.571	0.71	0.7	0.733	0.687	0.662	0.735	0.603	0.611	0.582	0.553	0.365	0.35	0.342	0.346	0.354
NCI-H1437	0.67	0.479	0.431	0.521	0.429	1.26	1.23	1.06	0.95	1.09	0.921	0.867	0.897	0.819	0.784	0.601	0.566	0.572	0.566	0.669
NCI-H1650	0.183	0.236	0.197	0.199	0.193	0.176	0.194	0.205	0.218	0.185	0.717	0.575	0.584	0.675	0.498	0.424	0.42	0.433	0.382	0.397
NCI-H1651	0.878	1.07	0.883	1.03	0.648	0.97	0.933	1.13	0.751	0.716	0.571	0.429	0.629	0.496	0.239	0.66	0.578	0.578	0.546	0.217
NCI-H1666	0.87	1.25	0.969	0.765	0.35	1.09	1.01	1.02	0.49	1.04	1.08	0.966	1.02	0.988	1.1	0.711	0.607	0.743	0.695	0.707
NCI-H1734	1.08	0.904	0.681	0.456	0.325	0.193	0.19	0.209	0.22	0.211	0.957	0.737	0.88	0.839	0.279	0.58	0.468	0.531	0.517	0.454
